Measured values taken from patent publication US9023393B2, “Pharmaceutical compositions of adsorbates of amorphous drugs and lipophilic microphase-forming materials” (Bend Research, Inc., priority 2003, dated 2015).

Key:
Type in all cases: physicochemical
[1] = In vitro dissolution test of Drug 1 compositions in PBS pH 6.5, room temperature, 0.45 μm syringe filter, UV; 50 μg/mL if all drug dissolved
Procedure: Example 1 consisted of Adsorbate 1 administered in solution with a lipophilic microphase-forming material. At time 0, a 4 mg sample of Adsorbate 1 was added to 40 mL phosphate buffered saline (PBS) at pH 6.5 and 290 mOsm/kg, containing 1 mg/mL of the lipophilic microphase-forming material Cremaphor RH40 (available from BASF of Mount Olive, N.J.). The concentration of drug would have been 50 μg/mL, if all of the drug had dissolved. The test solution was stirred at room temperature in a syringe equipped with a Gelman Acrodisc 13 CR 0.45 μm PTFE filter. At each sample time, 1 to 2 mL test solution was pushed through the filter and analyzed using UV to determine the concentration of Drug 1 in solution. Samples were collected at 0.5, 1, 2, 3, 5, 10, 15, 20, 30, 45, 60, 90, 120, 150, 250 and 1200 minutes.
Control 1 consisted of Adsorbate 1 administered into PBS without the lipophilic microphase-forming material, and a sufficient amount of adsorbate was added so that the concentration of drug would have been 50 μg/mL, if all of the drug had dissolved. An in vitro dissolution test was performed with Control 1 using the procedures outlined for Example 1 and the results are shown in Table 1.
Control 2 consisted of crystalline Drug 1 administered into PBS containing 1 mg/mL of the lipophilic microphase-forming material Cremophor RH40, and a sufficient amount of Drug 1 was added so that the concentration would have been 50 μg/mL, if all of the drug had dissolved. An in vitro dissolution test was performed with Control 2 using the procedures outlined for Example 1 and the results are shown in Table 1.
Control 3 consisted of crystalline Drug 1 administered into PBS without the lipophilic microphase-forming material, and a sufficient amount of crystalline Drug 1 was added so that the concentration of drug would have been 50 μg/mL, if all of the drug had dissolved. An in vitro dissolution test was performed with Control 3 using the procedures outlined for Example 1 and the results are shown in Table 1.
Example 2 consisted of Adsorbate 1 administered in solution with a different lipophilic microphase-forming material. At time 0, a 4 mg sample of Adsorbate 1 was added to 40 mL phosphate buffered saline (PBS) at pH 6.5 and 290 mOsm/kg, containing 1 mg/mL of 5/2 (wt/wt) Cremaphor RH40/Capmul MCM (available from Abitec of Janesville, Wis.); the concentration of drug would have been 50 μg/mL, if all of the drug had dissolved. The test solution was stirred at room temperature in a syringe equipped with a Gelman Acrodisc 13 CR 0.45 μm PTFE filter, as described for Example 1. Samples were collected and analyzed using UV to determine the concentration of Drug 1 in solution.
Control 4 consisted of crystalline Drug 1 administered into PBS containing 5/2 (wt/wt) Cremophor RH40/Capmul MCM, and a sufficient amount of Drug 1 was added so that the concentration would have been 50 μg/mL, if all of the drug had dissolved.

[2] = In vitro dissolution test of Drug 2 compositions in PBS pH 6.5, room temperature, 0.45 μm syringe filter, UV; 50 μg/mL if all drug dissolved
Procedure: Example 3 consisted of Adsorbate 2 administered into solution with a lipophilic microphase-forming material. At time 0, a 6.656 mg sample of Adsorbate 2 was added to 40 mL of phosphate buffered saline (PBS) at pH 6.5 and 290 mOsm/kg, containing 1 mg/mL of PEG 6000 distearate (the concentration of drug would have been 50 μg/mL, if all of the drug had dissolved). The test solution was stirred at room temperature in a syringe equipped with a Gelman Acrodisc 13 CR 0.45 μm PTFE filter, as described for Example 1. Samples were collected and analyzed using UV to determine the concentration of Drug 2 in solution.
Control 5 consisted of Adsorbate 2 administered into PBS without the lipophilic microphase-forming material, and a sufficient amount of sample was added so that the concentration of drug would have been 50 μg/mL, if all of the drug had dissolved.
Control 6 consisted of crystalline Drug 2 administered into PBS containing PEG 6000 Distearate, and a sufficient amount of Drug 2 was added so that the concentration would have been 50 μg/mL, if all of the drug had dissolved.
Control 7 consisted of crystalline Drug 2 administered into PBS without the lipophilic microphase-forming material, and a sufficient amount of sample was added so that the concentration of drug would have been 50 μg/mL, if all of the drug had dissolved.

[3] = In vitro dissolution test of Drug 3 compositions (Example 4 in MOPS buffer pH 7.4, controls given as PBS), room temperature, 0.45 μm syringe filter, UV; 50 μg/mL if all drug dissolved
Procedure: Example 4 consisted of Adsorbate 3 administered into solution with a lipophilic microphase-forming material. At time 0, an 8.02 mg sample of Adsorbate 3 was added to 40 ml of 50 mM 3-(4-morpholino propane sulfonic acid) sodium salt (MOPS) buffer at pH 7.4, containing 5 mg/mL of Tween 80 (available from ICI Americas Inc); the concentration of drug would have been 50 μg/mL, if all of the drug had dissolved. The test solution was stirred at room temperature in a syringe equipped with a Gelman Acrodisc 13 CR 0.45 μm PTFE filter, as described for Example 1. Samples were collected and analyzed using UV to determine the concentration of Drug 3 in solution.
Control 8 consisted of Adsorbate 3 administered into PBS without the lipophilic microphase-forming material, and a sufficient amount of sample was added so that the concentration of drug would have been 50 μg/mL, if all of the drug had dissolved.
Control 9 consisted of crystalline Drug 3 administered into PBS containing Tween 80, and a sufficient amount of Drug 3 was added so that the concentration would have been 50 μg/mL, if all of the drug had dissolved.
Control 10 consisted of crystalline Drug 3 administered into PBS without the lipophilic microphase-forming material, and a sufficient amount of sample was added so that the concentration of drug would have been 50 μg/mL, if all of the drug had dissolved.

In the case of `CCOC(=O)N1c2ccc(C(F)(F)F)cc2[C@@H](N(Cc2cc(C(F)(F)F)cc(C(F)(F)F)c2)C(=O)OC)C[C@H]1CC` [Control 3, [2R,4S] 4-[(3,5-bis-trifluoromethyl-benzyl)-methoxycarbonyl-amino]-2-ethyl-6-trifluoromethyl-3,4-dihydro-2H-quinoline-1-carboxylic acid ethyl ester], the AUC90 ([1]; Drug 1, area under the aqueous concentration versus time curve after 90 minutes) is reported as <45 µg·min/mL, the AUC ([1]; Drug 1, time 0 min) is reported as 0 µg·min/mL and the AUC ([1]; Drug 1, time 1 min) is reported as <1 µg·min/mL. The AUC ([1]; Drug 1, time 3 min) was <2 µg·min/mL, the AUC ([1]; Drug 1, time 5 min) was <3 µg·min/mL and the AUC ([1]; Drug 1, time 10 min) was <5 µg·min/mL. The AUC ([1]; Drug 1, time 15 min) was <8 µg·min/mL, the AUC ([1]; Drug 1, time 20 min) was <10 µg·min/mL and the AUC ([1]; Drug 1, time 30 min) was <15 µg·min/mL. For the same molecule, the AUC ([1]; Drug 1, time 45 min) was <23 µg·min/mL, the AUC ([1]; Drug 1, time 60 min) was <30 µg·min/mL and the AUC ([1]; Drug 1, time 90 min) was <45 µg·min/mL. For the same molecule, the AUC ([1]; Drug 1, time 120 min) was <60 µg·min/mL, the AUC ([1]; Drug 1, time 1200 min) was <600 µg·min/mL and the MDC90 ([1]; maximum concentration of Drug 1 in solution during the first 90 minutes) was <0.5 µg/mL. The “Drug 1 Concentration” value ([1]; time 0 min) was <0.5 µg/mL, the “Drug 1 Concentration” value ([1]; time 1 min) was <0.5 µg/mL and the “Drug 1 Concentration” value ([1]; time 3 min) was <0.5 µg/mL. The “Drug 1 Concentration” value ([1]; time 5 min) was <0.5 µg/mL, the “Drug 1 Concentration” value ([1]; time 10 min) was <0.5 µg/mL and the “Drug 1 Concentration” value ([1]; time 15 min) was <0.5 µg/mL. The “Drug 1 Concentration” value ([1]; time 20 min) was <0.5 µg/mL, the “Drug 1 Concentration” value ([1]; time 30 min) was <0.5 µg/mL and the “Drug 1 Concentration” value ([1]; time 45 min) was <0.5 µg/mL. The “Drug 1 Concentration” value ([1]; time 60 min) was <0.5 µg/mL, the “Drug 1 Concentration” value ([1]; time 90 min) was <0.5 µg/mL and the “Drug 1 Concentration” value ([1]; time 120 min) was <0.5 µg/mL. For the same molecule, the “Drug 1 Concentration” value ([1]; time 1200 min) was <0.5 µg/mL.

For `CC[C@@H]1C[C@H](N(Cc2cc(C(F)(F)F)cc(C(F)(F)F)c2)C(=O)OC)c2cc(C(F)(F)F)ccc2N1C(=O)OC(C)C` [Control 7, [2R,4S] 4-[(3,5-bis-trifluoromethyl-benzyl)-methoxycarbonyl-amino]-2-ethyl-6-trifluoromethyl-3,4-dihydro-2H-quinoline-1-carboxylic acid isopropyl ester], the AUC90 ([2]; Drug 2, area under the aqueous concentration versus time curve after 90 minutes) was <45 µg·min/mL, the AUC ([2]; Drug 2, time 0 min) was 0 µg·min/mL and the AUC ([2]; Drug 2, time 1 min) was <1 µg·min/mL. The AUC ([2]; Drug 2, time 2 min) was <1 µg·min/mL, the AUC ([2]; Drug 2, time 3 min) was <2 µg·min/mL and the AUC ([2]; Drug 2, time 5 min) was <3 µg·min/mL. The AUC ([2]; Drug 2, time 10 min) was <5 µg·min/mL, the AUC ([2]; Drug 2, time 15 min) was <8 µg·min/mL and the AUC ([2]; Drug 2, time 20 min) was <10 µg·min/mL. For the same molecule, the AUC ([2]; Drug 2, time 30 min) was <15 µg·min/mL, the AUC ([2]; Drug 2, time 45 min) was <23 µg·min/mL and the AUC ([2]; Drug 2, time 64 min) was <32 µg·min/mL. The AUC ([2]; Drug 2, time 90 min) was <45 µg·min/mL, the AUC ([2]; Drug 2, time 160 min) was <80 µg·min/mL and the AUC ([2]; Drug 2, time 1200 min) was <600 µg·min/mL. The MDC90 ([2]; maximum concentration of Drug 2 in solution during the first 90 minutes) was <0.5 µg/mL, the “Drug 2 Concentration” value ([2]; time 0 min) was <0.5 µg/mL and the “Drug 2 Concentration” value ([2]; time 1 min) was <0.5 µg/mL. For the same molecule, the “Drug 2 Concentration” value ([2]; time 2 min) was <0.5 µg/mL, the “Drug 2 Concentration” value ([2]; time 3 min) was <0.5 µg/mL and the “Drug 2 Concentration” value ([2]; time 5 min) was <0.5 µg/mL. The “Drug 2 Concentration” value ([2]; time 10 min) was <0.5 µg/mL, the “Drug 2 Concentration” value ([2]; time 15 min) was <0.5 µg/mL and the “Drug 2 Concentration” value ([2]; time 20 min) was <0.5 µg/mL. For the same molecule, the “Drug 2 Concentration” value ([2]; time 30 min) was <0.5 µg/mL, the “Drug 2 Concentration” value ([2]; time 45 min) was <0.5 µg/mL and the “Drug 2 Concentration” value ([2]; time 64 min) was <0.5 µg/mL. The “Drug 2 Concentration” value ([2]; time 90 min) was <0.5 µg/mL, the “Drug 2 Concentration” value ([2]; time 160 min) was <0.5 µg/mL and the “Drug 2 Concentration” value ([2]; time 1200 min) was <0.5 µg/mL.

In the case of `O=C1Cc2cc(CCN3CCN(c4nsc5ccccc45)CC3)c(Cl)cc2N1` [Control 10], the AUC90 ([3]; Drug 3, area under the aqueous concentration versus time curve after 90 minutes) is reported as <90 µg·min/mL, the AUC ([3]; Drug 3, time 0 min) is reported as <1 µg·min/mL and the AUC ([3]; Drug 3, time 5 min) is reported as <5 µg·min/mL. For the same molecule, the AUC ([3]; Drug 3, time 10 min) was <10 µg·min/mL, the AUC ([3]; Drug 3, time 20 min) was <20 µg·min/mL and the AUC ([3]; Drug 3, time 40 min) was <40 µg·min/mL. For the same molecule, the AUC ([3]; Drug 3, time 90 min) was <90 µg·min/mL, the AUC ([3]; Drug 3, time 1260 min) was <1260 µg·min/mL and the MDC90 ([3]; maximum concentration of Drug 3 in solution during the first 90 minutes) was <1 µg/mL. For the same molecule, the “Drug 3 Concentration” value ([3]; time 0 min) was <1 µg/mL, the “Drug 3 Concentration” value ([3]; time 5 min) was <1 µg/mL and the “Drug 3 Concentration” value ([3]; time 10 min) was <1 µg/mL. For the same molecule, the “Drug 3 Concentration” value ([3]; time 20 min) was <1 µg/mL, the “Drug 3 Concentration” value ([3]; time 40 min) was <1 µg/mL and the “Drug 3 Concentration” value ([3]; time 90 min) was <1 µg/mL. The “Drug 3 Concentration” value ([3]; time 1260 min) was <1 µg/mL.
